Assay results reported in patent publication US20240293367A1, “METHODS OF TREATING DISORDERS WITH A […]” (Cybin IRL Limited, priority 2023, published 2024).

Test system: participants with MDD
Test: MADRS total score, response, remission and relapse in MDD participants (Phase I/IIa study)
Format: in vivo, human
Excerpt: Cohorts 1, 4, 5, and 6 of the study was comprised of participants with MDD. Cohorts 2, 3, and the relative BA cohort of the study were comprised of normal healthy volunteers (NHV). […] MDD participants had been on a stable dose of antidepressant medication for at least one month prior to screening with an inadequate response to that antidepressant medication as judged by the Investigator, and continued to receive their prescribed antidepressant throughout the course of the study.
Cohorts 4 and 5. For Cohorts 4 and 5, 12 participants each (24 participants total) were randomized in a 3:1 ratio to receive 12 mg of psilocin-d10 or matched placebo in a single dosing session on Day 1. Following a 21-day interval, all participants received a dose of 12 mg psilocin-d10 on Day 22 (second dose for participants originally randomized to psilocin-d10, first dose for participants randomized to placebo), and were followed to Day 42.
Cohort 6. For Cohort 6, 12 participants were randomized in a 3:1 ratio to receive 16 mg of psilocin-d10 or matched placebo in a single dosing session on Day 1. Following a 21-day interval, all participants received a dose of 16 mg psilocin-d10 on Day 22 (second dose for participants originally randomized to psilocin-d10, first dose for participants randomized to placebo), and were followed to Day 42. Given the availability of data and considering that the secondary endpoint was a change in baseline to Day 21 in MADRS, efficacy data presented herein considers the data cut off of Day 21 postdose. One participant had to be withdrawn from the study due to pregnancy.
The primary efficacy endpoint defined in the statistical analysis plan (SAP) is the change from baseline to Day 21 of the total Montgomery-Åsberg Depression Rating Scale (MADRS) score compared to placebo, therefore efficacy data presented herein considers the data cut off of Day 21 postdose. Mean total score and change from baseline on Montgomery-Åsberg Depression Rating Scale (MADRS) on days 1, 10, 17, 22, 31, 38, and 42 are presented as secondary efficacy endpoints.
The secondary objective of the study was to evaluate the efficacy of psilocin-d10 in treating symptoms of MDD as measured by the change from baseline to Day 21 of the MADRS total score in the Intent-to-Treat population, with data analyzed according to the treatment group each participant was randomized to receive. Data from participants in Cohorts 4, 5, and 6 randomized to placebo was pooled for analysis purposes (N=9). Data from participants in Cohorts 4, 5, and 6 randomized to 12 mg or 16 mg psilocin-d10 (N=27) was also pooled for analysis.
Data from the study was also analyzed according to dosage level of psilocin-d10. Data from participants in Cohorts 4, 5, and 6 randomized to placebo was pooled for analysis purposes (N=9). Data from participants in Cohorts 4 and 5 (treated with 12 mg psilocin-d10) was also pooled for analysis (N=18).
The rates of remission, response, and relapse were also evaluated within the study. […] Additionally, 20.8% (5 out of 24) of participants in the psilocin-do group (12 mg and 16 mg combined) were in remission (remitters) (defined as a MADRS score of ≤10) compared to 0% for placebo at Day 21. The same 5 participants who were in remission were also classified as responders. None of the participants relapsed at Day 21 compared to baseline.
The MADRS is a 10-item scale with ratings based on a clinical interview which moves from broadly phrased questions about symptoms to more detailed ones allowing a precise rating of severity. A rating scale from 0 to 6 is employed and the rater must decide whether the rating lies on defined scale steps (0, 2, 4, 6) or between them (1, 3, 5). The MADRS can be used for any time interval between ratings, be it weekly or otherwise, and the time interval should be recorded. […]

[1] = Day 21, 12 mg single dose, Cohorts 4 and 5
[2] = Day 21, 16 mg single dose, Cohort 6
[3] = Day 21, single dose, 12 and 16 mg pooled

## [2H]C([2H])([2H])N(C([2H])([2H])[2H])C([2H])([2H])C([2H])([2H])c1c[nH]c2cccc(O)c12 [psilocin-d10, 3-(2-(bis(methyl-d3)amino)ethyl-1,1,2,2-d4)-1H-indol-4-ol]
10 days post first dose, 12 mg and 16 mg pooled
  mean reduction in baseline MADRS: 55%
10 days post second dose
  reduction in baseline MADRS: 66%
ANOVA [2], Placebo/active group (one dose Day 22)
  MADRS change from baseline, LS Mean (Std Err) for Day 42: −16.48 (3.50)
ANOVA [2], two doses, 12 and 16 mg pooled
  MADRS change from baseline, LS Mean (Std Err) for Day 42: −21.04 (2.24)
ANOVA [3], within Placebo/active group
  MADRS change from baseline, LS Mean (Std Err) for Day 42: −16.54 (2.89)
ANOVA at Day 21, 12 mg
  MADRS change from baseline, LS Mean: −16.70
ANOVA at Day 21, 16 mg
  MADRS change from baseline, LS Mean: −15.61
ANOVA at Day 42 (by dosage level), Placebo/active group (one dose Day 22)
  MADRS change from baseline, LS Mean: −16.48
ANOVA at Day 42, two 12 mg doses
  MADRS change from baseline, LS Mean: −19.83
ANOVA at Day 42, two 16 mg doses
  MADRS change from baseline, LS Mean: −23.41
ANOVA, 12 and 16 mg pooled
  MADRS change from baseline, LS Mean (Std Err) for Day 21: −16.33 (1.30)
Day 10 after single dose (baseline 32.2)
  MADRS mean total score: 17.7
Day 21, 12 mg (3 out of 15)
  participants in remission: 20%
Day 21, 12 mg (8 out of 15)
  participants with response: 53.3%
Day 21, 12 mg and 16 mg combined (5 out of 24)
  participants in remission (MADRS ≤10): 20.8%
Day 21, 12 mg and 16 mg combined (12 out of 24)
  participants with response (≥50% reduction from baseline MADRS): 50%
[1]
  MADRS total score, Change from Baseline, Mean: −17.0
  MADRS total score, Change from Baseline, Median: −17.0
  MADRS total score, Observed, Mean: 15.9
  MADRS total score, Observed, Median: 14.0
Day 21, 16 mg (2 out of 9)
  participants in remission: 22.2%
Day 21, 16 mg (4 out of 9)
  participants with response: 44.4%
[2]
  MADRS total score, Change from Baseline, Mean: −14.9
  MADRS total score, Change from Baseline, Median: −17.0
  MADRS total score, Observed, Mean: 16.6
  MADRS total score, Observed, Median: 18.0
Day 21, Cohort 4, 12 mg
  Relapse - No: 7 (100.0) n (%)
  Relapse - Yes: 0 (0.0) n (%)
  Remission (MADRS ≤10) - Yes: 2 (28.6) n (%)
  Remission - No: 5 (71.4) n (%)
  Response (≥50% reduction from baseline MADRS) - Yes: 4 (57.1) n (%)
  Response - No: 3 (42.9) n (%)
Day 21, Cohort 5, 12 mg
  Relapse - No: 8 (100.0) n (%)
  Relapse - Yes: 0 (0.0) n (%)
  Remission (MADRS ≤10) - Yes: 1 (12.5) n (%)
  Remission - No: 7 (87.5) n (%)
  Response (≥50% reduction from baseline MADRS) - Yes: 4 (50.0) n (%)
  Response - No: 4 (50.0) n (%)
Day 21, Cohort 6, 16 mg
  Relapse - No: 9 (100.0) n (%)
  Relapse - Yes: 0 (0.0) n (%)
  Remission (MADRS ≤10) - Yes: 2 (22.2) n (%)
  Remission - No: 7 (77.8) n (%)
  Response (≥50% reduction from baseline MADRS) - Yes: 4 (44.4) n (%)
  Response - No: 5 (55.6) n (%)
Day 21, Cohorts 4, 5 and 6, pooled 12 mg and 16 mg
  Remission (MADRS ≤10) - Yes: 5 (20.8) n (%)
Day 21, Cohorts 4 and 5, 12 mg
  Relapse - No: 15 (100.0) n (%)
  Relapse - Yes: 0 (0.0) n (%)
  Remission (MADRS ≤10) - Yes: 3 (20.0) n (%)
  Remission - No: 12 (80.0) n (%)
  Response (≥50% reduction from baseline MADRS) - Yes: 8 (53.3) n (%)
  Response - No: 7 (46.7) n (%)
Day 21, pooled 12 mg and 16 mg
  Relapse - No: 24 (100.0) n (%)
  Relapse - Yes: 0 (0.0) n (%)
  Remission - No: 19 (79.2) n (%)
  Response (≥50% reduction from baseline MADRS) - Yes: 12 (50.0) n (%)
  Response - No: 12 (50.0) n (%)
[3]
  MADRS total score, Change from Baseline, Mean: −16.2
  MADRS total score, Change from Baseline, Median: −17.0
  MADRS total score, Observed, Mean: 16.1
  MADRS total score, Observed, Median: 16.5
Day 21, 95% CI (−12.2, 10.1), P 0.8421
  MADRS, Difference in LS Means, 12 mg compared to Cohort 6 (16 mg): −1.09
Day 21, 95% CI (−20.5, −7.7), P 0.0001
  MADRS, Difference in LS Means, 12 mg compared to placebo: −14.11
Day 21, 95% CI (−22.3, −3.7), P 0.0080
  MADRS, Difference in LS Means, 16 mg compared to placebo: −12.99
Day 21 after single dose
  mean decrease from baseline MADRS: 50%
Day 31 (10 days post second dose)
  MADRS mean total score: 6.7
Day 42, Cohort 4, two 12 mg doses
  Relapse - No: 7 (100.0) n (%)
